These results are taken from patent US5023264A, “Rapamycin oximes” (American Home Products Corporation, priority 1990, dated 1991).

Converted amounts (≈) assume the structure as drawn. Where only a bound is given, the exact number is not on record here.

In experiment [1] the test system is immunosuppressive activity. Description: Standard pharmacological test procedures described supra (isomers of Example 1; overall immunosuppressive activity). More on the design: species or system mouse. Conditions: results not presented for the inactive isomer. How it is done:
(§1) Immunosuppressive activity was evaluated in an in vitro standard pharmacological test procedure to measure lymphocyte proliferation (LAF) and in two in vivo standard pharmacological test procedures. The first in vivo procedure was a popliteal lymph node (PLN) test procedure which measured the effect of compounds of this invention on a mixed lymphocyte reaction and the second in vivo procedure evaluated the survival time of a pinch skin graft.
(§2) Briefly, cells from the thymus of normal BALB/c mice are cultured for 72 hours with PHA and IL-1 and pulsed with tritiated thymidine during the last six hours. […] Cells are harvested and incorporated; radioactivity is determined. Inhibition of lymphoproliferation is assessed in percent change in counts per minute from non-drug treated controls. The results are expressed by the following ratio: [formula]
A mixed lymphocyte reaction (MLR) occurs when lymphoid cells from genetically distinct animals are combined in tissue culture. Each stimulates the other to undergo blast transformation which results in increased DNA synthesis that can be quantified by the incorporation of tritiated thymidine. […] On Day 3 and Day 4, tritiated thymidine is given i.p., b.i.d. On Day 5, the hind popliteal lymph nodes are removed and dissolved, and radioactivity counted. […] Percent suppression is calculated using the non-drug treated animals as allogenic control. […]

Experiment [2] concerns thymocyte (lymphocyte) proliferation. Description: Comitogen-induced thymocyte proliferation procedure (LAF). Format: cell-based. As to conditions: in vitro, thymus cells of BALB/c mice, PHA and IL-1, 72 hours; ratio calculated as described (rapamycin 1.0). On the procedure:
as §1, §2
(§3) *Calculation of ratios was described supra.
(§4) Transplanted pinch skin grafts are typically rejected within 6-7 days without the use of an immunosuppressive agent. […] (see, I. Roitt et al. Immunology, C. V. Moseby Co. 1989, p 12.8-12.11).

Experiment [3] deals with Candida albicans ATCC 10231. Kind of experiment: Antifungal plate test, MIC, strain ATCC 10231. Format: cell-based. As to conditions: plate disk test. On the procedure:
(§5) The following represents the typical procedure used. Compound to be tested was placed on sterile dried 1/4" plate disks, and allowed to dry. Agar plates were seeded with fungi and allowed to solidify. The impregnated disks were placed on the seeded Agar surface and incubated for the time required for the particular culture. Results are expressed in MIC (μg/ml) to inhibit growth.

Experiment [4] has as its system Candida albicans ATCC 38247. Kind of experiment: Antifungal plate test, MIC, strain ATCC 38247. Type of experiment: cell-based. As to conditions: plate disk test. On the procedure:
as §5

The subject of another experiment is Candida albicans 3669. Description: Antifungal plate test, MIC, strain 3669. Format: cell-based. Conditions: plate disk test. How it is done:
as §5

Experiment [5] concerns Candida albicans ATCC 38246. Description: Antifungal plate test, MIC, strain ATCC 38246. Type of experiment: cell-based. Conditions: plate disk test. On the procedure: as §5
Experiment [6] concerns mixed lymphocyte reaction in popliteal lymph node (host vs. graft). Description: Popliteal lymph node (PLN) test procedure, in vivo mixed lymphocyte reaction. More on the design: species or system mouse (BALB/c donors, C3H recipients). Conditions: for PLN (ratio): p.o. daily Day 0 to Day 4, ratio calculated as described (rapamycin 1.0). On the procedure: as §1
A mixed lymphocyte reaction (MLR) occurs when lymphoid cells from genetically distinct animals are combined in tissue culture. Each stimulates the other to undergo blast transformation which results in increased DNA synthesis that can be quantified by the incorporation of tritiated thymidine. Since stimulating a MLR is a function of disparity at Major Histocompatibility antigens, an in vivo popliteal lymph node (PLN) test procedure closely correlates to host vs. graft disease. Briefly, irradiated spleen cells from BALB/c donors are injected into the right hind foot pad of recipient C3H mice. The drug is given daily, p.o. from Day 0 to Day 4. On Day 3 and Day 4, tritiated thymidine is given i.p., b.i.d. On Day 5, the hind popliteal lymph nodes are removed and dissolved, and radioactivity counted. The corresponding left PLN serves as the control for the PLN from the injected hind foot. Percent suppression is calculated using the non-drug treated animals as allogenic control. […] Results are expressed by the following ratio: [formula]
as §3, §4

For experiment [7], the system named is Candida albicans ATCC 38248. Kind of experiment: Antifungal plate test, MIC, strain ATCC 38248. Conditions: plate disk test. Type of experiment: cell-based. On the procedure: as §5
In experiment [8] the test system is pinch skin graft rejection. Description: Survival time of pinch skin graft. Conditions: for Skin Graft survival (days + SD): intraperitoneally, mean graft survival time ± S.D. Type of experiment: in vivo, mouse (male DBA/2 donors, male BALB/c recipients). How it is done:
as §1
The second in vivo test procedure is designed to determine the survival time of pinch skin graft from male DBA/2 donors transplanted to male BALB/c recipients. The method is adapted from Billingham R. E. and Medawar P. B., J. Exp. Biol. 28:385-(402), 1951. Briefly, a pinch skin graft from the donor is grafted on the dorsum of the recipient as a homograft, and an autograft is used as control in the same region. […] Untreated recipients serve as rejection control. The graft is monitored daily and observations are recorded until the graft becomes dry and forms a blackened scab. This is considered as the rejection day. The mean graft survival time (number of days±S.D.) of the drug treatment group is compared with the control group.
as §4

The next experiment concerns transplant rejection. As to conditions: cited from earlier work.
The next experiment relates to Candida albicans. As to conditions: particularly against Candida albicans, in vitro and in vivo; cited from earlier work.
A further experiment deals with IGE-like antibodies. As to conditions: in vivo; cited from earlier work.
Experiment [9] relates to experimental allergic encephalomyelitis, a model for multiple sclerosis. Conditions: cited from earlier work.

On to `CO[C@H]1C[C@@H]2CC[C@@H](C)[C@@](O)(O2)C(=O)C(=O)N2CCCC[C@H]2C(=O)O[C@H]([C@H](C)C[C@@H]2CC[C@@H](O)[C@H](OC)C2)CC(=O)[C@H](C)/C=C(\C)[C@@H](O)[C@@H](OC)C(=NO)[C@H](C)C[C@H](C)/C=C/C=C/C=C/1C` (single isomer, unassigned) [isomerically pure mono-oxime, Rapamycin-27-oxime], for which, in [1], the “Biological activity of the isomers of Example 1” value is “biologically inactive”.
The MIC is the lowest concentration found to suppress growth. For the compound `CO[C@H]1C[C@@H]2CC[C@@H](C)[C@@](O)(O2)C(=O)C(=O)N2CCCC[C@H]2C(=O)O[C@H]([C@H](C)C[C@@H]2CC[C@@H](O)[C@H](OC)C2)CC(=O)[C@H](C)/C=C(\C)[C@@H](O)[C@@H](OC)C(=NOCc2ccccc2)[C@H](C)C[C@H](C)/C=C/C=C/C=C/1C` [Example 2, Rapamycin-O-benzyl-27-oxime], the “LAF (ratio)” value in [2] is 0.87. In addition, the MIC (in experiment [3]; in experiment [4]; in the experiment with Candida albicans 3669; in experiment [5]; in experiment [7]) was above 0.4 µg/mL each time. In experiment [6], the “PLN (ratio)” value is on record as 1.39. Also, the “Skin Graft survival (days + SD)” value in [8] was 9.3 ± 1.4 days.
Consider `CON=C1[C@H](C)C[C@H](C)/C=C/C=C/C=C(\C)[C@@H](OC)C[C@@H]2CC[C@@H](C)[C@@](O)(O2)C(=O)C(=O)N2CCCC[C@H]2C(=O)O[C@H]([C@H](C)C[C@@H]2CC[C@@H](O)[C@H](OC)C2)CC(=O)[C@H](C)/C=C(\C)[C@@H](O)[C@H]1OC` [Example 3, Rapamycin-O-methyl-27-oxime], for which the “LAF (ratio)” value in experiment [2] is reported as 0.007. Moreover, the MIC in experiment [3] amounted to 0.2 µg/mL (≈ 0.212 µM); in [4] it was 0.2 µg/mL (≈ 0.212 µM); in the experiment on Candida albicans 3669, 0.2 µg/mL (≈ 0.212 µM); in experiment [5] it was 0.05 µg/mL (≈ 0.053 µM); in experiment [7], 0.05 µg/mL (≈ 0.053 µM). Besides, the “Skin Graft survival (days + SD)” value in [8] was found to be 9.5 ± 1.4 days.
For the compound `C=CC[C@@H]1/C=C(\C)C[C@H](C)C[C@H](OC)[C@H]2O[C@@](O)(C(=O)C(=O)N3CCCC[C@H]3C(=O)O[C@H](/C(C)=C/[C@@H]3CC[C@@H](O)[C@H](OC)C3)[C@H](C)[C@@H](O)CC1=O)[C@H](C)C[C@@H]2OC` [FK-506], the “Immunosuppressive effect / inhibition of transplant rejection” value (“Immunosuppressive effect / inhibition” below) in the experiment on transplant rejection is reported as “effective as immunosuppressive agents”.
On to `CO[C@H]1C[C@@H]2CC[C@@H](C)[C@@](O)(O2)C(=O)C(=O)N2CCCC[C@H]2C(=O)O[C@H]([C@H](C)C[C@@H]2CC[C@@H](O)[C@H](OC)C2)CC(=O)[C@H](C)/C=C(\C)[C@@H](O)[C@@H](OC)C(=O)[C@H](C)C[C@H](C)/C=C/C=C/C=C/1C` [Rapamycin], for which the “Immunosuppressive effect / inhibition” value in the experiment with transplant rejection is “effective in inhibiting transplant rejection”. The Antifungal activity result in the experiment on Candida albicans was “antifungal activity, particularly against Candida albicans, both in vitro and in vivo”. In the experiment on IGE-like antibodies, the “Inhibition of formation of IGE-like antibodies” value is reported as “effectively inhibited the formation of IGE-like antibodies”. Also, in [9], the “Effect in experimental allergic encephalomyelitis model” value is given as “effective in the experimental allergic encephalomyelitis model”. The “Skin Graft survival (days + SD)” value in experiment [8] is listed as 12.0 ± 1.7 days.
Take Rapamycin-27-oxime [Example 1]: the “LAF (ratio)” value in experiment [2] was 0.25. Besides, the MIC amounted to 0.05 µg/mL in [3]; 0.05 µg/mL in [4]; 0.2 µg/mL in the experiment with Candida albicans 3669; 0.2 µg/mL in experiment [5]; 0.1 µg/mL in experiment [7]. Besides, the “Biological activity of the isomers of Example 1” value in [1] was “active in the assays described supra”. In experiment [6] (from negative PLN ratio), the “T cell proliferation in the PLN test procedure (in words)” value is “may cause T cell proliferation in the PLN test procedure”. In [6], the “PLN (ratio)” value was -1.40. Further, the “Skin graft survival time (in words)” value in experiment [8] (compared with grafts without immunosuppressive agent, rejected within 6-7 days) is reported as “increased survival time observed in the skin graft test procedure”. Besides, the “Skin Graft survival (days + SD)” value in [8] is reported as 10.0 ± 1.6 days.
Regarding cyclosporin A, the “Immunosuppressive effect / inhibition” value with transplant rejection was “effective as immunosuppressive agents”.
